Results as given in patent publication US9211325B2, “Peptide adjuvants” (priority 2008, dated 2015).

How the values were obtained:
Parameters in all cases: species or system BALB/c mice
Settings in all cases: mouse, in vivo
[1] = system: homologous influenza virus isolate used for immunization (MDCK cells, CPE)
[2] = system: HA (peptide pools derived from HA)
[3] = system: Total anti-HBS antibodies
[4] = system: Total anti-influenza IgG antibodies

Substance | Neutralizing antibody response, FIG. 2 [1] | T-cell response (ELISPOT), FIG. 18 [2] | other results
CHKWD (Short peptide sequence not known to occur in nature) [5mer1] | did not cause a strong neutralizing antibody response |  | 
CKWRC (Short peptide sequence not known to occur in nature) [5mer3] | did not cause a strong neutralizing antibody response |  | 
CYWWW (Short peptide sequence not known to occur in nature) |  | generated a significant T-cell response | 
CYYWC (Short peptide sequence not known to occur in nature) |  | below the baseline of HA alone | 
EHWCM (Short peptide sequence not known to occur in nature) |  | generated a large T-cell response | 
EMWCM (Short peptide sequence not known to occur in nature) |  | did not | 
KWCEC (Short peptide sequence not known to occur in nature) [5mer4] | caused a significant antibody response |  | T cell response (ELISPOT) compared with other adjuvants, FIG. 16 [2]: stronger than that generated with alum alone and comparable to that generated by CpG
KYMCW (Short peptide sequence not known to occur in nature) [5mer7] | caused a significant antibody response |  | 
WHKCE (Short peptide sequence not known to occur in nature) [5mer2] | did not cause a strong neutralizing antibody response |  | 
free peptide (KWCEC; Short peptide sequence not known to occur in nature) |  |  | Total anti-HBS antibodies (ELISA) response [3]: strong response at both 6 and 8 weeks post immunization; antibody response (ELISA) after fluviral vaccination [4]: stronger response at both 6 and 8 weeks post immunization
